Measured values reported in the NIST ThermoML archive (doi:10.1016/j.fluid.2012.06.002).
Numbers after ± are expanded uncertainties.

Assay: wn = mass fraction of the nth substance listed
Conditions: 101 kPa, Liquid, pycnometer

mass density (298.15 K, w1 = 0.293) [kg/m3] | mass density (328.15 K, w1 = 0.436) [kg/m3] | mass density (298.15 K, w1 = 0.538) [kg/m3] | mass density (328.15 K, w1 = 0.734) [kg/m3] | Compound
1164 ± 1 | 1258 ± 1 |  |  | N.O=P(O)(O)O [ammonium dihydrogen phosphate] + O
 |  | 1260 ± 1 | 1359 ± 2 | NC(N)=O.O=P(O)(O)O [urea phosphate] + O
